This note sets out measurements from article PMC5766609 (Scientific Reports, 2018).

Residues, ends and D or L forms follow the SMILES beside them. Where only a bound is given, the exact number is not on record here.

Assay [1] addresses T1, human glucagon receptor (GCGR) (Homo sapiens, UniProt P47871).
T1 construct: expressed in transfected cells; host or cells: CHO-JumpIn cells, stably transfected
Briefly: cAMP assay on CHO-JumpIn cells stably transfected with human glucagon receptor (HitHunter cAMP).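 As to all read-outs here: peptides tested as 4-fold serial dilutions starting from a 2 µM solution, cells exposed 1 hr at RT in darkness, cAMP quantified against a cAMP standard curve.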 The format is cell-based. The following applies: for EC50: Table 2, cAMP accumulation, CHO-JumpIn cells with human GCGR, buffer PBS, 0.1% BSA, 100 μM RO 20-1724, 20% serum, 1 hr at RT, value ± spread, read-out: EC50 GCGR.

The target of assay [2] is T2, human GLP-1 receptor (GLP1R) (Homo sapiens, UniProt P43220).
T2 construct: expressed in transfected cells; host or cells: CHO-JumpIn cells, stably transfected
Briefly: cAMP assay on CHO-JumpIn cells stably transfected with human GLP-1 receptor (HitHunter cAMP).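 Also: peptides tested as 4-fold serial dilution series, cells exposed 1 hr at RT in the dark, cAMP quantified against a cAMP standard calibration curve.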 It counts as cell-based. The settings on record: Table 2, cAMP accumulation, buffer PBS, 0.1% BSA, 100 μM RO 20-1724, 20% serum, 1 hr at RT, value ± spread, read-out: EC50 GLP1R. Background: Changes in cAMP serve as a functional read-out for many G protein-coupled receptors.
Description: Briefly, a 2 μM solution of peptide was prepared, and 4-fold serial dilutions were made. 150 nL of the above titration was then dispensed into an Optiplate384 using an Echo555. […] The HitHunter® cAMP Assay kit calibration curve was prepared following the manufacturer’s protocol (DiscoveRx-90-0075L). 30,000 cells/well were added to the peptides, spun briefly at 500 rpm for 15 s and incubated at RT in the dark for 1 hr. The assay was developed as per the manufacturer’s instructions. cAMP accumulation due to GLP1R agonism or GCGR agonism was measured using an EnVision platereader (PerkinElmer), and calibrated using the cAMP standard curve. Data were analyzed using Assay Data Analyzer (ADA).

T1 sequence (P47871 26-477): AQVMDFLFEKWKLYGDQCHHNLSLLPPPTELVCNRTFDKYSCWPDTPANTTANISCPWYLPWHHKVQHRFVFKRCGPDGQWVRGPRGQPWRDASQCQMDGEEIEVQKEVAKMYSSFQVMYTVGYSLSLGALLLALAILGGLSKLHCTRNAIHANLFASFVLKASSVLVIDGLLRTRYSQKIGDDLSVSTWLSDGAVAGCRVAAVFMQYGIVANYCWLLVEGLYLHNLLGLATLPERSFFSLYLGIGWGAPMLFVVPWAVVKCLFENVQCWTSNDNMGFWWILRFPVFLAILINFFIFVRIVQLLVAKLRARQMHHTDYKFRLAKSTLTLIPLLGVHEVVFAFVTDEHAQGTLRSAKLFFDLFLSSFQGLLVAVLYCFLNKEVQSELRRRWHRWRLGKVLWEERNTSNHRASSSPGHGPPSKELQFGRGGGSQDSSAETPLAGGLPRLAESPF
T2 sequence (P43220 24-463): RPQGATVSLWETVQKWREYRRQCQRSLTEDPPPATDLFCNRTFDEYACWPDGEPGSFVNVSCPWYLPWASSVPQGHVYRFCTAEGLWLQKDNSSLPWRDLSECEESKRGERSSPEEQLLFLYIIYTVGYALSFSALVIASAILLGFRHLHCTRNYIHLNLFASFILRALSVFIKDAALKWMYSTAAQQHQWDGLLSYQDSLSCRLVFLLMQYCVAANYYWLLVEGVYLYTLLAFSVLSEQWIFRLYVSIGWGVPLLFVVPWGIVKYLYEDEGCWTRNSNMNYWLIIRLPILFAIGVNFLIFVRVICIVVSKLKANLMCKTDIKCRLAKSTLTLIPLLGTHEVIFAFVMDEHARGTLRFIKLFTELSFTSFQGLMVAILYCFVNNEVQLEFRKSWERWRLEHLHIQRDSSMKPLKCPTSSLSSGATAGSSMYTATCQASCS

A word on the EC50: it is the concentration needed to bring the measured effect to its halfway point. In the case of `CC(C)C[C@H](NC(=O)[C@H](Cc1ccc(O)cc1)NC(=O)[C@H](CCCCN)NC(=O)[C@H](CO)NC(=O)[C@H](Cc1ccc(O)cc1)NC(=O)[C@H](CC(=O)O)NC(=O)[C@H](CO)NC(=O)[C@H](Cc1ccccc1)NC(=O)[C@H](Cc1ccccc1)NC(=O)[C@@H](NC(=O)CNC(=O)[C@H](CCC(N)=O)NC(=O)[C@H](CO)NC(=O)[C@@H](N)Cc1c[nH]cn1)[C@@H](C)O)C(=O)N[C@@H](CC(=O)O)C(=O)N[C@@H](CO)C(=O)N[C@@H](CCCNC(=N)N)C(=O)N[C@@H](CCCNC(=N)N)C(=O)N[C@@H](C)C(=O)N[C@@H](CCC(N)=O)C(=O)N[C@@H](CC(=O)O)C(=O)N[C@@H](Cc1ccccc1)C(=O)N[C@H](C(=O)N[C@@H](CCC(N)=O)C(=O)N[C@@H](Cc1c[nH]c2ccccc12)C(=O)N[C@@H](CC(C)C)C(=O)N[C@@H](CC(C)C)C(=O)N[C@@H](CCC(=O)O)C(=O)N[C@H](C(N)=O)[C@@H](C)O)C(C)C` [Peptide 34] (H-HSQGTFFSDYSKYLDSRRAQDFVQWLLET-NH2), the results for the EC50 in assay [1] and in assay [2] were 0.027 ± 0.005 nM and 51.9 ± 57.7 nM, respectively.

For the compound `CSCC[C@H](NC(=O)[C@H](CO)NC(=O)[C@@H](NC(=O)[C@H](CCSC)NC(=O)[C@@H](NC(=O)[C@H](Cc1ccccc1)NC(=O)[C@H](CC(=O)O)NC(=O)[C@H](CCC(N)=O)NC(=O)[C@H](C)NC(=O)[C@H](CCCNC(=N)N)NC(=O)[C@H](CCCNC(=N)N)NC(=O)[C@H](CO)NC(=O)[C@H](CC(=O)O)NC(=O)[C@H](CC(C)C)NC(=O)[C@H](Cc1ccc(O)cc1)NC(=O)[C@H](CCCCN)NC(=O)[C@H](CO)NC(=O)[C@H](Cc1ccc(O)cc1)NC(=O)[C@H](CC(=O)O)NC(=O)[C@H](CO)NC(=O)[C@@H](NC(=O)[C@H](Cc1ccccc1)NC(=O)[C@@H](NC(=O)CNC(=O)[C@H](CCC(N)=O)NC(=O)[C@H](CO)NC(=O)[C@@H](N)Cc1c[nH]cn1)[C@@H](C)O)[C@@H](C)O)C(C)C)[C@@H](C)O)C(=O)N[C@@H](CC(N)=O)C(=O)N[C@H](C(N)=O)[C@@H](C)O` [Peptide 26], the concentration giving a half-maximal response (EC50) in assay [1] was greater than 200 nM; in assay [2], 8.96 ± 1.84 nM.

For the compound `CC(C)C[C@H](NC(=O)[C@H](Cc1ccc(O)cc1)NC(=O)[C@H](CCCCN)NC(=O)[C@H](CO)NC(=O)[C@H](Cc1ccc(O)cc1)NC(=O)[C@H](CC(=O)O)NC(=O)[C@H](CO)NC(=O)[C@@H](NC(=O)[C@H](Cc1ccccc1)NC(=O)[C@@H](NC(=O)CNC(=O)[C@H](CCC(N)=O)NC(=O)[C@H](CO)NC(=O)[C@@H](N)Cc1c[nH]cn1)[C@@H](C)O)[C@@H](C)O)C(=O)N[C@@H](CC(=O)O)C(=O)N[C@@H](Cc1c[nH]c2ccccc12)C(=O)N[C@@H](CCCNC(=N)N)C(=O)N[C@@H](CCCNC(=N)N)C(=O)N[C@@H](C)C(=O)N[C@@H](CCC(N)=O)C(=O)N[C@@H](CC(=O)O)C(=O)N[C@@H](Cc1ccccc1)C(=O)N[C@H](C(=O)N[C@@H](CCC(N)=O)C(=O)N[C@@H](Cc1c[nH]c2ccccc12)C(=O)N[C@@H](CC(C)C)C(=O)N[C@@H](CCC(N)=O)C(=O)N[C@@H](CC(N)=O)C(=O)N[C@H](C(N)=O)[C@@H](C)O)C(C)C` [Peptide 23], the EC50 in assay [1] was determined as 0.019 ± 0.001 nM; in assay [2], 0.017 ± 0.001 nM.

`CSCC[C@H](NC(=O)[C@H](CC(C)C)NC(=O)[C@H](Cc1c[nH]c2ccccc12)NC(=O)[C@H](CCC(N)=O)NC(=O)[C@@H](NC(=O)[C@H](Cc1ccccc1)NC(=O)[C@H](CC(=O)O)NC(=O)[C@H](Cc1ccc(O)cc1)NC(=O)[C@H](C)NC(=O)[C@H](CCCNC(=N)N)NC(=O)[C@H](CC(C)C)NC(=O)[C@H](CCC(=O)O)NC(=O)[C@H](CC(=O)O)NC(=O)[C@H](CC(C)C)NC(=O)[C@H](Cc1ccc(O)cc1)NC(=O)[C@H](CCCCN)NC(=O)[C@H](CO)NC(=O)[C@H](Cc1ccc(O)cc1)NC(=O)[C@H](CC(=O)O)NC(=O)[C@H](CO)NC(=O)[C@@H](NC(=O)[C@H](Cc1ccccc1)NC(=O)[C@@H](NC(=O)CNC(=O)[C@H](CCC(N)=O)NC(=O)[C@H](CO)NC(=O)[C@@H](N)Cc1c[nH]cn1)[C@@H](C)O)[C@@H](C)O)C(C)C)C(=O)N[C@@H](CC(N)=O)C(=O)N[C@H](C(N)=O)[C@@H](C)O` [Peptide 10] (H-HSQGTFTSDYSKYLDELRAYDFVQWLMNT-NH2): the EC50 in assay [1] was 0.057 ± 0.021 nM; in assay [2], 0.038 ± 0.009 nM.

Turning to `CSCC[C@H](NC(=O)[C@H](CC(C)C)NC(=O)[C@H](Cc1c[nH]c2ccccc12)NC(=O)[C@H](CCC(N)=O)NC(=O)[C@@H](NC(=O)[C@H](Cc1ccccc1)NC(=O)[C@H](CC(=O)O)NC(=O)[C@H](Cc1c[nH]cn1)NC(=O)[C@H](C)NC(=O)[C@H](CCCNC(=N)N)NC(=O)[C@H](CCCNC(=N)N)NC(=O)[C@H](CC(=O)O)NC(=O)[C@H](CCC(=O)O)NC(=O)[C@@H](NC(=O)[C@H](Cc1ccc(O)cc1)NC(=O)[C@H](CCCCN)NC(=O)[C@H](CO)NC(=O)[C@H](Cc1ccc(O)cc1)NC(=O)[C@H](CC(=O)O)NC(=O)[C@H](CO)NC(=O)[C@@H](NC(=O)[C@H](Cc1ccccc1)NC(=O)[C@@H](NC(=O)CNC(=O)[C@H](CCC(N)=O)NC(=O)[C@H](CO)NC(=O)[C@@H](N)Cc1c[nH]cn1)[C@@H](C)O)[C@@H](C)O)C(C)C)C(C)C)C(=O)N[C@@H](CC(N)=O)C(=O)N[C@H](C(N)=O)[C@@H](C)O` [Peptide 2] (H-HSQGTFTSDYSKYVEDRRAHDFVQWLMNT-NH2), the EC50 came out at 2.24 ± 0.334 nM in assay [1] and 0.184 ± 0.006 nM in assay [2].

Take `CC[C@H](C)[C@H](NC(=O)CNC(=O)[C@H](CCC(N)=O)NC(=O)[C@H](CO)NC(=O)[C@@H](N)Cc1c[nH]cn1)C(=O)N[C@@H](Cc1ccccc1)C(=O)N[C@@H](Cc1ccccc1)C(=O)N[C@@H](CO)C(=O)N[C@@H](CC(=O)O)C(=O)N[C@@H](Cc1ccc(O)cc1)C(=O)N[C@@H](CO)C(=O)N[C@@H](CCCCN)C(=O)N[C@@H](Cc1ccc(O)cc1)C(=O)N[C@@H](CC(C)C)C(=O)N[C@@H](CC(=O)O)C(=O)N[C@@H](CO)C(=O)N[C@@H](CCCNC(=N)N)C(=O)N[C@@H](CCCNC(=N)N)C(=O)N[C@@H](C)C(=O)N[C@@H](CCC(N)=O)C(=O)N[C@@H](CC(=O)O)C(=O)N[C@@H](Cc1ccccc1)C(=O)N[C@H](C(=O)N[C@@H](CCC(N)=O)C(=O)N[C@@H](Cc1c[nH]c2ccccc12)C(=O)N[C@@H](CC(C)C)C(=O)N[C@@H](CCSC)C(=O)N[C@@H](CC(N)=O)C(=O)N[C@H](C(N)=O)[C@@H](C)O)C(C)C` [Peptide 30] (H-HSQGIFFSDYSKYLDSRRAQDFVQWLMNT-NH2): the EC50 in assay [1] was 0.026 ± 0.004 nM; in assay [2], greater than 200 nM.

`CC[C@H](C)[C@H](NC(=O)[C@H](CC(C)C)NC(=O)[C@H](Cc1c[nH]c2ccccc12)NC(=O)[C@H](CCC(N)=O)NC(=O)[C@@H](NC(=O)[C@H](Cc1ccccc1)NC(=O)[C@H](CC(=O)O)NC(=O)[C@H](CCC(N)=O)NC(=O)[C@H](C)NC(=O)[C@H](CCCNC(=N)N)NC(=O)[C@H](CCCNC(=N)N)NC(=O)[C@H](C)NC(=O)[C@H](CC(=O)O)NC(=O)[C@H](CC(C)C)NC(=O)[C@H](Cc1ccc(O)cc1)NC(=O)[C@H](CCCCN)NC(=O)[C@H](CO)NC(=O)[C@H](Cc1ccc(O)cc1)NC(=O)[C@H](CC(=O)O)NC(=O)[C@H](CO)NC(=O)[C@@H](NC(=O)[C@H](Cc1ccccc1)NC(=O)[C@@H](NC(=O)CNC(=O)[C@H](CCC(N)=O)NC(=O)[C@H](CO)NC(=O)[C@@H](N)Cc1c[nH]cn1)[C@@H](C)O)[C@@H](C)O)C(C)C)C(=O)N[C@@H](CCCNC(=N)N)C(=O)N[C@H](C(N)=O)[C@@H](C)O` [Peptide 8]: the EC50 in assay [1] turned out to be 0.038 ± 0.01 nM; in assay [2], 0.017 ± 0.001 nM.

Regarding `CC[C@H](C)[C@H](NC(=O)[C@H](CC(C)C)NC(=O)[C@H](Cc1c[nH]c2ccccc12)NC(=O)[C@H](CC(=O)O)NC(=O)[C@@H](NC(=O)[C@H](Cc1ccccc1)NC(=O)[C@H](CC(=O)O)NC(=O)[C@H](CCC(N)=O)NC(=O)[C@H](C)NC(=O)[C@H](CCCNC(=N)N)NC(=O)[C@H](CCCNC(=N)N)NC(=O)[C@H](CO)NC(=O)[C@H](CC(=O)O)NC(=O)[C@H](CC(C)C)NC(=O)[C@H](Cc1ccc(O)cc1)NC(=O)[C@H](CCCCN)NC(=O)[C@H](CO)NC(=O)[C@H](Cc1ccc(O)cc1)NC(=O)[C@H](CC(=O)O)NC(=O)[C@H](CO)NC(=O)[C@@H](NC(=O)[C@H](Cc1ccccc1)NC(=O)[C@@H](NC(=O)CNC(=O)[C@H](CCC(N)=O)NC(=O)[C@H](CO)NC(=O)[C@@H](N)Cc1c[nH]cn1)[C@@H](C)O)[C@@H](C)O)C(C)C)C(=O)N[C@@H](CC(N)=O)C(=O)N[C@@H](CO)C(N)=O` [Peptide 28], the half-maximal effective concentration (EC50) in assay [1] amounted to 0.016 ± 0.001 nM; in assay [2], 0.007 ± 0.001 nM.

Turning to `CC[C@H](C)[C@H](NC(=O)[C@H](Cc1c[nH]c2ccccc12)NC(=O)[C@H](Cc1ccccc1)NC(=O)[C@H](CC(=O)O)NC(=O)[C@H](CCC(N)=O)NC(=O)[C@H](C)NC(=O)[C@H](CCCNC(=N)N)NC(=O)[C@H](CCCNC(=N)N)NC(=O)[C@H](CO)NC(=O)[C@H](CC(=O)O)NC(=O)[C@H](CC(C)C)NC(=O)[C@H](Cc1ccc(O)cc1)NC(=O)[C@H](CCCCN)NC(=O)[C@H](CO)NC(=O)[C@H](Cc1ccc(O)cc1)NC(=O)[C@H](CC(=O)O)NC(=O)[C@H](CO)NC(=O)[C@@H](NC(=O)[C@H](Cc1ccccc1)NC(=O)[C@@H](NC(=O)CNC(=O)[C@H](CCC(N)=O)NC(=O)[C@H](CO)NC(=O)[C@@H](N)Cc1c[nH]cn1)[C@@H](C)O)[C@@H](C)O)C(=O)N[C@@H](CC(=O)O)C(=O)N[C@@H](CC(C)C)C(=O)N[C@@H](CCSC)C(=O)N[C@@H](CC(N)=O)C(=O)N[C@H](C(N)=O)[C@@H](C)O` [Peptide 25], the EC50 in assay [1] and in assay [2] was greater than 20 nM in each case. The “activation of the receptors (in words)” value in assay [1] (both receptors (GCGR and GLP1R) not activated) was “did not activate”.
